From paper PMC12316034, “Tetrahydromagnolol induces autophagic cell death by targeting the m^6A reader protein YTHDF2 and enhances the efficacy of anti-PD-1 immunotherapy in pancreatic cancer cells” (Theranostics, 2025)

Target: T1, YTHDF2 (YTH N6-methyladenosine RNA binding protein F2) (Homo sapiens, UniProt Q9Y5A9)
T1 construct: recombinant protein of YTHDF2 (NCBI: 51441)
T1 sequence (Q9Y5A9 2-579): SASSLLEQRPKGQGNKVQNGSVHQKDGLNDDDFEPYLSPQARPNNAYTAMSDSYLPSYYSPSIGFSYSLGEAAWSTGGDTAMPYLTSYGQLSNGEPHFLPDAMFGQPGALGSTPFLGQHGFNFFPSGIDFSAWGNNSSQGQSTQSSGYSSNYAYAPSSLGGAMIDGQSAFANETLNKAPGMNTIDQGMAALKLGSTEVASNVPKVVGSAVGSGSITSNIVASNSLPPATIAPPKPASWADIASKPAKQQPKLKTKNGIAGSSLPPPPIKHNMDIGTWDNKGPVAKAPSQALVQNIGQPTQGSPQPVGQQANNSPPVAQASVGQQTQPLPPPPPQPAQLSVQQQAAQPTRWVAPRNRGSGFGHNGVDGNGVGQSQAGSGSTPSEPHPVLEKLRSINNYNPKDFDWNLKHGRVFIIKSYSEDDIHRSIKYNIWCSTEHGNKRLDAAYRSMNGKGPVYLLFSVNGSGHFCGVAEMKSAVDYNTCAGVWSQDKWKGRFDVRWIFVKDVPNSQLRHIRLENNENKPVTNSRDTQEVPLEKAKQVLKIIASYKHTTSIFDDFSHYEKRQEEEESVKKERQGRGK
Assay: SPR on immobilised recombinant YTHDF2; also ITC, THM-bead pull-down, CETSA, LC-MS/MS

For `CCCc1ccc(O)c(-c2cc(CCC)ccc2O)c1` [Tetrahydromagnolol], the Kd was 22 µM.
